One test has as its target Cdc42 ACT (Cdc42Q61L) (Homo sapiens, UniProt P60953, Q61L). Put plainly: Bead-based flow cytometry dose response, BODIPY-FL-GTP binding. The method, then:
(§1) Bead sets for multiplex assays were custom synthesized by Duke Scientific Corp (Fremont, Calif.), but may now be ordered from Thermo/Fisher. […] Negative controls, contained the bead mixture with fluorescent GTP, 0.5 mM unlabeled GTP as a competitor, and 1% DMSO. […] The resulting time-dependent data (one file per plate) were analyzed using IDLQuery software to determine the compound activity in each well. Gating based on forward scatter (FS) and side scatter (SS) parameters was used to identify singlet bead populations. Gating based on FL8 emission distinguishes the beads coated with different proteins, and the median fluorescence per bead population was calculated. […] Baselines were set to 100% based on measurements from the 1% DMSO containing positive controls as further described in PubChem. {PubChem #72}
(§2) Briefly, compounds were serially diluted 1:3 a total of eight times from a starting concentration of 10 mM giving a 9-point dilution series in DMSO. The final concentrations of inhibitors in the assay ranged from 10 nM to 100 μM. Dose-response analyses were examined in the presence of NP-HPS buffer containing: a) 1 mM EDTA; or b) 1 mM MgCl2. […] For assays with EDTA we used one multiplex (Rab7 wt, Rab2 wt, H-Ras wt, H-RasG12V, Cdc42 wt, and Cdc42Q61L) and 3 single-plexes (for Rac1 wt, Rac1 Q61L and GST-GFP).
(§3) GTPase activators were identified on the basis of an increase in fluorescent GTP-binding.
(§4) In experiments including magnesium, six GST-GTPases were assayed simultaneously in a single multiplex (Rac1 wt, Rac1Q61L, RhoA wt, RhoAL63, Cdc42 wt and Cdc42Q61L) and 1 nM BODIPY-FL-GTP binding was measured in the presence or absence of the serial drug dilution series. Each dose response series was run in duplicate.
(In general: In flow cytometry, cells or beads pass a laser one at a time.)

A further test has as its target T1, Cdc42 WT (Homo sapiens, UniProt P60953).
T1 construct: purchased Cytoskeleton
The description is as above. To be noted: for EC50: read-out: Cdc42 WT EC50; for Emax: read-out: Cdc42 WT Efficacy. The method, then:
as §1, §2, §3, §4

Test [1] relates to Cdc42, Rab2, Rab7, activated Rac1Q61L, Rac1, and H-Ras. Put plainly: Multiplexed primary screen, fluorescent GTP binding. To be noted: 10 μM compound. The method, then: Multiplex screening was performed by measuring GTP-binding activities of six GTPases (Cdc42, Rab2, Rab7, activated Rac1Q61L, Rac1, and H-Ras) simultaneously using special glutathione (GSH) bead sets having varied fluorescence intensities at a fixed wavelength^38. Individual GST-GTPase chimeras were tested against approximately 200,000 small molecules from the Molecular Libraries Small Molecule Repository (MLSMR). Results of fluorescent GTP-binding from the entire primary screen are summarized in the open access Pubchem database as required for projects conducted under the Roadmap Initiative (AID 757-761, 764). […] In total 1877 compounds/194,635 were identified as activators or inhibitors in the primary screen. On the order of 100-500 compounds were found active per GTPase target, enabling an unprecedented, comprehensive evaluation of small molecules active against various Ras-related GTPase family members. Here we report one compound active specifically on Cdc42 and structure activity relationships determined through chemical synthesis.
Multiplex analysis of small GTPases, were performed as we have described previously {Surviladze, 2009}. […] Flow cytometric light scatter and fluorescence emission at 530+/−20 nm (FL1) and 665+/−10 nm (FL8) were collected on a Cyan ADP flow cytometer (Beckman Coulter, Fullerton, Calif.). The resulting time-dependent data (one file per plate) were analyzed using IDLQuery software to determine the compound activity in each well. […] Gating based on FL8 emission distinguishes the beads coated with different proteins, and the median fluorescence per bead population was calculated. […]
For detection of GTP binding to small G-proteins we used bead-based multiplex flow cytometry assay {Surviladze, 2009}. […] Six individual GST-GTPases representative of Rho, Ras and Rab branches of the Ras-related GTPase family (Cdc42 wt, Rac1 wt, Rac1Q61L, Rab2 wt, Rab7 wt, and H-Ras wt) were first bound to GSH-beads of a particular fluorescence intensity. […]

The mark [2] stands for this setting: Table 5, R2 analogs, read-out: Cdc42 ACT EC50.
[3] abbreviates: Table 6, R3 analogs, read-out: Cdc42 ACT EC50.

Like-named read-outs stand apart in the source and are kept apart here.

What is called EC50 is the concentration giving half of the maximal effect.

T1 sequence (P60953 whole entry): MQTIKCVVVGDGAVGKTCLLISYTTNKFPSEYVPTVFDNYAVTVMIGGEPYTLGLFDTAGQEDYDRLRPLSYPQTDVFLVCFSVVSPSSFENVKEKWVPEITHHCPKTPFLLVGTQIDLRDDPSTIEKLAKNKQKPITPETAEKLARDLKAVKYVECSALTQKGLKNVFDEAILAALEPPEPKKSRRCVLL
Chain of Cdc42 ACT (Cdc42Q61L) (P60953 whole entry Q61L): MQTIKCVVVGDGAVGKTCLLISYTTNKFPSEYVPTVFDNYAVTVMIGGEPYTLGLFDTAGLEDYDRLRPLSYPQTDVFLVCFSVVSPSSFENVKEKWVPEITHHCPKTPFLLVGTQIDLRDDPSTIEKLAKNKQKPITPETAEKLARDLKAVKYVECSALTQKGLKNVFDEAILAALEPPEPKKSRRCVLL

Take `COc1ccc(C2CC(C)=NN2c2ccc(S(N)(=O)=O)cc2)cc1` (stereo not shown) [CID 14870296]: at Cdc42 ACT (Cdc42Q61L) (setting [2]), the EC50 was > 100 µM. At Cdc42 WT (Table 5, R2 analogs), the concentration for a half-maximal effect (EC50) is > 100 µM and the Emax was 17%.
`COc1ccc(C2CC(c3ccccc3)=NN2c2ccc(S(N)(=O)=O)cc2)cc1OC` (stereo not shown) [CID 2971684] yielded an EC50 on Cdc42 ACT (Cdc42Q61L) of 6.1 µM. Further, on Cdc42 WT (Table 6, R3 analogs), the EC50 was 5.7 µM and the Emax was 75%.
Consider `NS(=O)(=O)c1ccc(N2N=C(c3ccccc3)CC2c2ccc(Br)cc2)cc1` (stereo not shown) [CID 13927312, 4-[3-(4-bromophenyl)-5-phenyl-3,4-dihydropyrazol-2-yl]benzene sulfonamide], for which the EC50 on Cdc42 ACT (Cdc42Q61L) (setting [3]) turned out to be 1.7 µM. On Cdc42 WT (Table 6, R3 analogs), the concentration giving a half-maximal response (EC50) worked out at 1.1 µM and the Emax amounted to 56%.
`COc1ccc(C2=NN(c3ccc(S(N)(=O)=O)cc3)C(c3ccc(OC)cc3)C2)cc1` (stereo not shown) [CID 15201811]: the EC50 at Cdc42 ACT (Cdc42Q61L) (setting [2]) worked out at 2.5 µM. Also, on Cdc42 WT (Table 5, R2 analogs), the concentration giving a half-maximal response (EC50) is 2.6 µM and the Emax stood at 38%.
With `NS(=O)(=O)c1ccc(N2N=C(c3ccccc3)CC2c2cccc(F)c2)cc1` (stereo not shown) [CID 12005853], the half-maximal effective concentration (EC50) at Cdc42 ACT (Cdc42Q61L) (setting [3]) stood at 9.6 µM. Further, at Cdc42 WT (Table 6, R3 analogs), the EC50 amounted to 4.9 µM and the Emax is 71%.
The like results for `NS(=O)(=O)c1ccc(N2N=C(c3ccccc3)CC2c2ccc(Cl)cc2)cc1` (stereo not shown) [CID 13927311] were, in that order, 3.6 µM, 2.8 µM and 69%.
The matching figures for `Cc1ccccc1C1CC(c2ccccc2)=NN1c1ccc(S(N)(=O)=O)cc1` (stereo not shown) [CID 44143704]: 13.6 µM, 16.6 µM and 55%.
The like results for `COc1ccccc1C1CC(c2ccccc2)=NN1c1ccc(S(N)(=O)=O)cc1` (stereo not shown) [CID 42628035] were, in that order, 78.9 µM, 22.5 µM and 45%.
`COc1ccc(C2CC(C(C)(C)C)=NN2c2ccc(S(N)(=O)=O)cc2)cc1` (stereo not shown) [CID 44193701]: on Cdc42 ACT (Cdc42Q61L) (setting [2]), the EC50 is > 100 µM. For the same molecule, on Cdc42 WT (Table 5, R2 analogs), the EC50 was > 100 µM and the Emax was determined as 33%.
In the case of `COc1ccc(C2CC(c3cccc(OC)c3)=NN2c2ccc(S(N)(=O)=O)cc2)cc1` (stereo not shown) [CID 44143698, 4-[5-(3-methoxyphenyl)-3-(4-methoxyphenyl)-3,4-dihydropyrazol-2-yl]benzenesulfonamide], the EC50 at Cdc42 ACT (Cdc42Q61L) (setting [2]) is 1.6 µM. For the same molecule, at Cdc42 WT (Table 5, R2 analogs), the EC50 turned out to be 1.5 µM and the Emax was 50%.
Take `COc1cccc(C2CC(c3ccccc3)=NN2c2ccc(S(N)(=O)=O)cc2)c1` (stereo not shown) [CID 44143701]: the EC50 on Cdc42 ACT (Cdc42Q61L) (setting [3]) amounted to 4.3 µM. In addition, at Cdc42 WT (Table 6, R3 analogs), the half-maximal effective concentration (EC50) was found to be 4.8 µM and the Emax worked out at 53%.
Regarding `NS(=O)(=O)c1ccc(N2N=C(c3ccccc3)CC2c2ccccc2Br)cc1` (stereo not shown) [CID 44216862], the concentration for a half-maximal effect (EC50) on Cdc42 ACT (Cdc42Q61L) (setting [3]) is > 100 µM; at Cdc42 WT (Table 6, R3 analogs), > 100 µM.
Turning to `NS(=O)(=O)c1ccc(N2N=C(c3ccccc3)CC2c2ccccc2Cl)cc1` (stereo not shown) [CID 44193697], the EC50 was 7.4 µM on Cdc42 ACT (Cdc42Q61L) (setting [3]) and 7.2 µM on Cdc42 WT (Table 6, R3 analogs). Besides, the Emax on Cdc42 WT (Table 6, R3 analogs) was 39%.
In the case of `COc1ccc(C2CC(c3ccsc3)=NN2c2ccc(S(N)(=O)=O)cc2)cc1` (stereo not shown) [CID 44143713], on Cdc42 ACT (Cdc42Q61L) (setting [2]), the EC50 is 7.3 µM. At Cdc42 WT (Table 5, R2 analogs), the 50% effective concentration (EC50) came to 7.3 µM and the Emax amounted to 47%.
In the case of `NS(=O)(=O)c1ccc(N2N=C(c3ccccc3)CC2c2cccc(Br)c2)cc1` (stereo not shown) [CID 44143703], on Cdc42 ACT (Cdc42Q61L) (setting [3]), the EC50 was 3.7 µM. Moreover, at Cdc42 WT (Table 6, R3 analogs), the concentration for a half-maximal effect (EC50) stood at 3.3 µM and the Emax was 55%.
Turning to `O=C(O)c1cccnc1SCCc1ccccc1` [CID888706], the “Outcome of primary screening” value in test [1] is “activator”.
On to `NS(=O)(=O)c1ccc(N2N=C(c3ccccc3)CC2c2ccccc2)cc1` (stereo not shown) [CID 2837695], for which the EC50 at Cdc42 ACT (Cdc42Q61L) (setting [3]) was found to be 16.8 µM. Moreover, at Cdc42 WT (Table 6, R3 analogs), the 50% effective concentration (EC50) amounted to 31.6 µM and the Emax worked out at 56%.
As for `COc1ccc(C2CC(c3ccccc3OC)=NN2c2ccc(S(N)(=O)=O)cc2)cc1` (stereo not shown) [CID 44143702], the EC50 on Cdc42 ACT (Cdc42Q61L) (setting [2]) stood at 5.5 µM. For the same molecule, at Cdc42 WT (Table 5, R2 analogs), the “Cdc42 WT Efficacy” value is reported as 59%, the concentration for a half-maximal effect (EC50) came to 6 µM and the Emax stood at 59%.
Regarding `NS(=O)(=O)c1ccc(N2N=C(c3ccccc3)CC2c2cccc(Cl)c2)cc1` (stereo not shown) [CID 44193696], the concentration for a half-maximal effect (EC50) at Cdc42 ACT (Cdc42Q61L) (setting [3]) stood at 3.6 µM. In addition, on Cdc42 WT (Table 6, R3 analogs), the EC50 was determined as 3.3 µM and the Emax stood at 64%.
The molecule `COc1ccc(C2CC(c3cccs3)=NN2c2ccc(S(N)(=O)=O)cc2)cc1` (stereo not shown) [CID 44143712] registered an EC50 on Cdc42 ACT (Cdc42Q61L) of 4 µM. At Cdc42 WT (Table 5, R2 analogs), the EC50 is 2.9 µM and the Emax is 57%.

The values are drawn from patent US9642835B2, “Modulators of GTPase and use in relevant treatment” (STC.UNM, priority 2010, dated 2017).
